Here are results for one compound from US12077483B2, “Modified amine lipids” (Intellia Therapeutics, Inc., priority 2018, dated 2024).

A short description of data set [1]: pKa of amine lipid by TNS fluorescence. Type of data set: physicochemical. The following applies: probe TNS (6-(p-toluidino)-2-naphthalenesulfonic acid sodium salt), unformulated amine lipid in ethanol, sodium phosphate buffers -9.0. The method, boiled down: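 pKa derived from a sigmoidal fit of normalized TNS fluorescence (321 nm excitation, 448 nm emission) versus pH. Lipid from ethanol stock diluted to about 100 μM final in 0.1 M phosphate buffers, pH 4.5–9.0.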

The subject of a further data set is mouse TTR. The experiment in a line: Serum TTR ELISA in mice after LNP delivery. Type of data set: in vivo. The settings on record: mouse serum, relative to TSS control of same experiment, dose 0.03 mpk; 0.03 mg/kg. The gist of the method:
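Mouse TTR in serum was quantified by ELISA (samples diluted e.g. 10,000- and/or 2,500-fold) 6–7 days after dosing CD-1 females with LNP, typically 0.1 mpk. Values are reported relative to vehicle-treated controls (%).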
For orientation: ELISA stands for enzyme-linked immunosorbent assay.

Data set [2] is described as follows: RNA encapsulation efficiency of LNP (Ribogreen fluorescence assay). In kind it is physicochemical. The method, boiled down:
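LNP samples diluted in 1× TE with or without 0.2% Triton-X 100 for total or free RNA, stained ~10 min at room temperature in the dark with RiboGreen; fluorescence ex 488/em 525 nm against RNA standard curves. Encapsulation efficiency = (Total RNA−Free RNA)/Total RNA.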

Data set [3] can be described thus: LNP average particle size and polydispersity by dynamic light scattering. Type of data set: physicochemical. The method, boiled down:
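LNPs were diluted in PBS to a count rate of about 200-400 kcps and measured by DLS on a Zetasizer. Size is the intensity-weighted Z-average diameter, reported with number-average diameter, and the polydispersity index describes the spread of sizes around the mean.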

The mark [4] stands for this setting: LNP with the compound as amine lipid, Expt. 3, composition ratio (mol %) 50/9/38/3 for Cmpnd 49, 50/10/38.5/1.5 for the others.
[5] abbreviates: LNP with the compound as amine lipid, Expt. 5, composition ratio (mol %) 50/10/38.5/1.5.
Setting [6] is: LNP with the compound as amine lipid, Expt. 9, composition ratio (mol %) 50/9/38/3 for Cmpnd 49, 50/10/38.5/1.5 for the others.
Setting [7] is: Table 10, LNP with G00534 sgRNA:Cas9 mRNA 1:2 w/w.
The mark [8] stands for this setting: Table 13, LNP sgRNA:Cas9 mRNA 1:2 w/w, N/P 6.0.

Where “and” joins values, the source holds several entries; their conditions need not be identical. Equal entries are not always repeated.

As to `CCCCC/C=C\C/C=C\CCCCCCCC(=O)OCC(COC(=O)CCCCCCC/C=C\C/C=C\CCCCC)OC(=O)CCC(CCCCCC)OC(=O)NCCN1CCCC1` (racemic) [Compound 50, 2-((4-(((2-(pyrrolidin-1-yl)ethyl)carbamoyl)oxy)decanoyl)oxy)propane-1,3-diyl (9Z,9′Z,12Z,12′Z)-bis(octadeca-9,12-dienoate)], in data set [1], the pKa – broadly, the negative logarithm of the acid dissociation constant – is 6.5. Moreover, the “Serum TTR % TSS” value in the data set with mouse TTR is 71.3 % TSS and 45.51 % TSS and 70.1 % TSS. Moreover, the “Encapsulation (%)” value in data set [2] (setting [4]) is recorded as 98%; in data set [2] (setting [5]), 98%; in data set [2] (setting [6]), 97%; in data set [2] (setting [7]), 87%. Moreover, the “% E” value in data set [2] (setting [8]) is recorded as 97%. Further, the “Num Ave Size (nm)” value in data set [3] (setting [4]) was found to be 76.57 nm; in data set [3] (setting [5]), 77 nm; in data set [3] (setting [6]), 78 nm. The PDI turned out to be 0.02 in data set [3] (setting [4]); 0.06 in data set [3] (setting [5]); 0.04 in data set [3] (setting [6]); 0.050 in data set [3] (setting [7]); 0.021 in data set [3] (setting [8]). Also, the “Z-Ave Size (nm)” value in data set [3] (setting [4]) is listed as 94.33 nm; in data set [3] (setting [5]) it was 103.00 nm; in data set [3] (setting [6]) it was 98 nm; in data set [3] (setting [8]), 102.8 nm. Moreover, the “Num Avg Size (nm)” value in data set [3] (setting [7]) stood at 79.18 nm. Besides, the “Z-Avg Size (nm)” value in data set [3] (setting [7]) is 98.55 nm. For the same compound, the “Number Average [nm]” value in data set [3] (setting [8]) is on record as 84.16 nm.
